Test results taken from the supplement of paper PMC11061612.

Legend:
Test in all cases: combination Emax (second highest fraction inhibited in the dose matrix, 72 h); higher = more inhibition; extreme values may be limits of the assay
[1] = system: CAL-120 (Breast Carcinoma)
In short: (§1)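 Cell lines in DMEM/F12 or RPMI with 10% FBS were plated in 1536-well plates, held 24 hours at 37°C, 5% CO2, then given two-drug dose matrices for 72 hours (DMSO typically 0.2%). Viability was read by CellTiter-Glo 2.0 luminescence and scaled as inhibition from 0 (vehicle wells) to 1 (blank wells). Combination Emax is the second-highest inhibition in the matrix; Bliss excess is observed combination effect minus expected EA + EB − EA·EB, EA and EB being single-agent effects.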

[2] = system: KE-37 (T-Lymphoblastic Leukemia)
In short: as §1

[3] = system: SF268 (Low Grade Glioma)
In short: as §1

[4] = system: 23132-87 (Gastric Carcinoma)
In short: as §1

[5] = system: RERF-GC-1B (Gastric Carcinoma)
In short: as §1

[6] = system: FADU (Head and Neck Carcinoma)
In short: as §1

[7] = system: RERF-LC-Sq1 (Squamous Cell Lung Carcinoma)
In short: as §1

[8] = system: GP5d (Colorectal Carcinoma)
In short: as §1

[9] = system: HEC-1 (Endometrial Carcinoma)
In short: as §1

[10] = system: VAL (B-Cell Non-Hodgkin's Lymphoma)
In short: as §1

[11] = system: HSC-39 (Gastric Carcinoma)
In short: as §1

[12] = system: LK-2 (Squamous Cell Lung Carcinoma)
In short: as §1

[13] = system: PC-3_[JPC-3] (Lung Adenocarcinoma)
In short: as §1

[14] = system: IST-MES1 (Mesothelioma)
In short: as §1

[15] = system: MKN45 (Gastric Carcinoma)
In short: as §1

[16] = system: REH (B-Lymphoblastic Leukemia)
In short: as §1

[17] = system: RCM-1 (Colorectal Carcinoma)
In short: as §1

[18] = system: MFE-280 (Endometrial Carcinoma)
In short: as §1

[19] = system: NCI-H2342 (Lung Adenocarcinoma)
In short: as §1

[20] = system: PSN1 (Pancreatic Carcinoma)
In short: as §1

SMILES | combination Emax [1] | combination Emax [2] | combination Emax [3] | combination Emax [4] | combination Emax [5] | combination Emax [6] | combination Emax [7] | combination Emax [8] | combination Emax [9] | combination Emax [10] | combination Emax [11] | combination Emax [12] | combination Emax [13] | combination Emax [14] | combination Emax [15] | combination Emax [16] | combination Emax [17] | combination Emax [18] | combination Emax [19] | combination Emax [20]
COc1nnc2ccc(N3CCC(c4ccc(OCCN5CCN(C)C(=O)[C@H]5C)cc4)CC3)nn12 [AZD5153] + CN(CC[C@H](CSC1=CC=CC=C1)NC2=C(C=C(C=C2)S(=O)(=O)NC(=O)C3=CC=C(C=C3)N4CCC(CC4)[C@H](C5=CC=CC=C5C6=CC=C(C=C6)Cl)O)S(=O)(=O)C(F)(F)F)CCO [AZD4320] (first compound max 1 µM, 7x7, partner max 1 µM) | 0.919 | 1 | 0.552 | 0.349 | 0.813 | 0.45 | 0.706 | 0.727 | 0.983 |  |  |  |  |  |  |  |  |  |  | 
Cc1nc(Nc2ncc(C(=O)Nc3c(C)cccc3Cl)s2)cc(N2CCN(CCO)CC2)n1 [Dasatinib] + CC(=O)Nc1cccc(-n2c(=O)n(C3CC3)c(=O)c3c(Nc4ccc(I)cc4F)n(C)c(=O)c(C)c32)c1 [Trametinib] (first compound max 2 µM, 7x7, partner max 1 µM) | 0.525 | 0.32 |  | 0.315 | 1 | 0.515 | 0.562 | 0.697 | 0.295 | 0.691 | 0.498 | 0.63 | 0.738 | 0.924 | 0.79 | 0.089 | 0.798 | 0.486 | 0.232 | 0.942
C=CCn1c(=O)c2cnc(Nc3ccc(N4CCN(C)CC4)cc3)nc2n1-c1cccc(C(C)(C)O)n1 [AZD1775] + C1CN(CCC1(C(=O)N[C@@H](CCO)C2=CC=C(C=C2)Cl)N)C3=NC=NC4=C3C=CN4 [Capivasertib] (first compound max 3 µM, partner max 3 µM) | 0.727 | 1 | 0.456 | 0.829 |  | 0.644 | 0.844 | 0.973 | 0.615 | 0.841 | 0.958 | 0.941 | 0.577 | 0.292 | 0.741 | 0.93 | 0.628 | 0.451 | 0.282 | 0.763
CCc1c2c(nc3ccc(O)cc13)-c1cc3c(c(=O)n1C2)COC(=O)[C@]3(O)CC [SN-38] + O=C(c1cc(Cc2n[nH]c(=O)c3ccccc23)ccc1F)N1CCN(C(=O)C2CC2)CC1 [Olaparib] (first compound max 0.3 µM, 7x7, partner max 10 µM) | 0.7 | 1 |  | 0.814 |  | 0.996 | 0.672 | 0.704 | 0.761 | 0.994 | 0.887 | 0.456 | 0.825 | 0.63 | 0.847 | 1 | 0.809 | 0.785 | 0.236 | 0.753
CN(CCO)CC[C@H](CSc1ccccc1)Nc1ccc(S(=O)(=O)NC(=O)c2ccc(N3CCC([C@@H](O)c4ccccc4-c4ccc(Cl)cc4)CC3)cc2)cc1S(=O)(=O)C(F)(F)F [AZD4320] + C1CN(CCC1(C(=O)N[C@@H](CCO)C2=CC=C(C=C2)Cl)N)C3=NC=NC4=C3C=CN4 [Capivasertib] (first compound max 1 µM, 7x7, partner max 3 µM) |  | 1 | 0.211 | 0.221 | 0.496 | 0.116 | 0.667 | 0.72 | 0.295 | 1 | 0.328 | 0.655 | 0.152 | 0.0905 | 0.456 | 1 | 0.343 | 0.88 | 0.3 | 0.276
C[C@@H](c1ccc2nccn2c1)n1nnc2ncc(-c3cnn(C)c3)nc21 [Savolitinib] + CN(CC[C@H](CSC1=CC=CC=C1)NC2=C(C=C(C=C2)S(=O)(=O)NC(=O)C3=CC=C(C=C3)N4CCC(CC4)[C@H](C5=CC=CC=C5C6=CC=C(C=C6)Cl)O)S(=O)(=O)C(F)(F)F)CCO [AZD4320] (first compound max 1 µM, 7x7, partner max 1 µM) | 0.65 | 1 | 0.172 | 0.338 | 0.367 | 0.221 | 0.238 | 0.29 | 0.423 |  |  |  |  |  |  |  |  |  |  | 
CS(=O)(=O)CCNCc1ccc(-c2ccc3ncnc(Nc4ccc(OCc5cccc(F)c5)c(Cl)c4)c3c2)o1 [Lapatinib] + NC1(c2ccc(-c3nc4ccn5c(=O)[nH]nc5c4cc3-c3ccccc3)cc2)CCC1 [MK-2206] (first compound max 10 µM, 7x7, partner max 10 µM) |  |  |  |  | 0.943 |  |  |  |  | 0.898 | 0.933 | 0.892 | 0.927 | 0.638 | 0.617 | 0.957 | 0.514 | 0.911 | 0.196 | 0.562
